Measurements from patent publication US20250179000A1 (Sanford Burnham Prebys Medical Discovery Institute, priority 2021, published 2025).

Key:
Format in all cases: cell-based
Human mGlu2 = Human mGlu2 (Homo sapiens, UniProt Q14416); experiment: mGlu receptor in vitro assay, human mGlu2
Human mGlu3 = Human mGlu3 (Homo sapiens, UniProt Q14832); experiment: mGlu receptor in vitro assay, human mGlu3
Experimental: (§1) Human Embryonic Kidney (HEK-293) cell lines co-expressing rat mGlu receptors 2, 3, 4, 6, 7 or 8 and G protein-coupled inwardly-rectifying potassium (GIRK) channels were grown in Growth Media containing 45% DMEM, 45% F-12, 10% FBS, 20 mM HEPES, 2 mM L-glutamine, antibiotic/antimycotic, non-essential amino acids, 700 μg/mL G418, and 0.6 μg/ml puromycin at 37° C. in the presence of 5% CO2. […] All cell culture reagents were purchased from Invitrogen Corp. (Carlsbad, CA) unless otherwise noted. Calcium assays were used to assess activity of compounds at mGlu1 and mGlu5, as previously described in Engers et al (J. Med. Chem. 2009, 52, 4115-4118). Calcium assays at mGlu3 were performed as described for mGlu5 with the exception that TREx293 mGlu3 Gα15 cells were treated with tetracycline at 20 ng/mL for 20 h prior to assay.
(§2) Briefly, cells were plated into 384-well, black-walled, clear-bottomed poly-D-lysine-coated plates at a density of 15,000 cells/20 μL/well in DMEM containing 10% dialyzed FBS, 20 mM HEPES, and 100 units/mL penicillin/streptomycin (assay media). Plated cells were incubated overnight at 37° C. in the presence of 5% CO2. The following day, the medium was exchanged from the cells to assay buffer [Hanks' balanced salt solution (Invitrogen) containing 20 mM HEPES, pH 7.3] using an ELX405 microplate washer (BioTek), leaving 20 μL/well, followed by the addition of 20 μL/well FluoZin2-AM (330 nM final concentration) indicator dye (Invitrogen; prepared as a stock in DMSO and mixed in a 1:1 ratio with Pluronic acid F-127) in assay buffer. Cells were incubated for 1 h at room temperature, and the dye exchanged to assay buffer using an ELX405, leaving 20 μL/well. Test compounds were diluted to 2 times their final desired concentration in assay buffer (0.3% DMSO final concentration). Agonists were diluted in thallium buffer [125 mM sodium bicarbonate (added fresh the morning of the experiment), 1 mM magnesium sulfate, 1.8 mM calcium sulfate, 5 mM glucose, 12 mM thallium sulfate, and 10 mM HEPES, pH 7.3] at 5 times the final concentration to be assayed. Cell plates and compound plates were loaded onto a kinetic imaging plate reader (FDSS 6000 or 7000; Hamamatsu Corporation, Bridgewater, NJ). Appropriate baseline readings were taken (10 images at 1 Hz; excitation, 470±20 nm; emission, 540±30 nm) and test compounds were added in a 20 μL volume and incubated for approximately 2.5 min before the addition of 10 μL of thallium buffer with or without agonist. After the addition of agonist, data were collected for approximately an additional 2.5 min. Data were analyzed using Excel (Microsoft Corp, Redmond, WA). The slope of the fluorescence increase beginning 5 s after thallium/agonist addition and ending 15 s after thallium/agonist addition was calculated, corrected to vehicle and maximal agonist control slope values, and plotted in using either XLfit (ID Business Solutions Ltd) or Prism software (GraphPad Software, San Diego, CA) to generate concentration-response curves. Potencies were calculated from fits using a four-point parameter logistic equation. For concentration-response curve experiments, compounds were serially diluted 1:3 into 10-point concentration response curves and were transferred to daughter plates using an Echo acoustic plate reformatter (Labcyte, Sunnyvale, CA). Test compounds were applied and followed by EC20 concentrations of glutamate.

Rat mGlu2 = target: T1, Rat mGlu2 (Rattus norvegicus, UniProt P31421); experiment: mGlu receptor in vitro assay, thallium flux through GIRK channels, rat mGlu2; conditions: PAM potency with EC20 glutamate
T1 construct: expressed in transfected cells; host or cells: HEK-293 co-expressing GIRK channels
T1 sequence (P31421 19-872): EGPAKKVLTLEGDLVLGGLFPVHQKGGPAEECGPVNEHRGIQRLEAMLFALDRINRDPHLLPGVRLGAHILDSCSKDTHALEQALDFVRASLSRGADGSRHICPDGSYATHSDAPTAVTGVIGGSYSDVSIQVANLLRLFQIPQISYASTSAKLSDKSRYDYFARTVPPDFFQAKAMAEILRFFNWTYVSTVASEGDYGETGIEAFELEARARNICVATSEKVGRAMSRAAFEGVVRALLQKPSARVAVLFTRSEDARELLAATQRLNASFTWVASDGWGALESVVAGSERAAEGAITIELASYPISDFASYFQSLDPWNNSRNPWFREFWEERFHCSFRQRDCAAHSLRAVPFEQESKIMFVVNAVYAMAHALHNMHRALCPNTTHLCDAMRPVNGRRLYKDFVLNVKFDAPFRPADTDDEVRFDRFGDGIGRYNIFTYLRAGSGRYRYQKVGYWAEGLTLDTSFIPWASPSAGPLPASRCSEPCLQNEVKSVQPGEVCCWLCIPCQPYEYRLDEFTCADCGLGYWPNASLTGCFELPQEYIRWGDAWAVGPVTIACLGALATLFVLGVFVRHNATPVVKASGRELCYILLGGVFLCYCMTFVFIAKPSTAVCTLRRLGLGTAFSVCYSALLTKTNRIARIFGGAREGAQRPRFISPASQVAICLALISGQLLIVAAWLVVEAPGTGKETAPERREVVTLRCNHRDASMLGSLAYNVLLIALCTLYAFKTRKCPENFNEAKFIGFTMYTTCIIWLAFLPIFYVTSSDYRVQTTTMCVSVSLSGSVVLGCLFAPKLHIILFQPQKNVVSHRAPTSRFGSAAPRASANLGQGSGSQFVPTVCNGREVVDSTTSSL
Experimental: as §1
as §2, with “Compound activity at the group II (mGlu2 and mGlu3) and group III (mGlu4, mGlu6, mGlu7, and mGlu8) was assessed using thallium flux through GIRK channels, a method that has been described in detail. Briefly,” for “Briefly,”

Rat mGlu3 = target: T2, Rat mGlu3 (Rattus norvegicus, UniProt P31422); experiment: mGlu receptor in vitro assay (thallium flux through GIRK channels / calcium assay), rat mGlu3; conditions: PAM potency with EC20 glutamate
T2 construct: expressed in transfected cells; host or cells: HEK-293 co-expressing GIRK channels
T2 sequence (P31422 23-879): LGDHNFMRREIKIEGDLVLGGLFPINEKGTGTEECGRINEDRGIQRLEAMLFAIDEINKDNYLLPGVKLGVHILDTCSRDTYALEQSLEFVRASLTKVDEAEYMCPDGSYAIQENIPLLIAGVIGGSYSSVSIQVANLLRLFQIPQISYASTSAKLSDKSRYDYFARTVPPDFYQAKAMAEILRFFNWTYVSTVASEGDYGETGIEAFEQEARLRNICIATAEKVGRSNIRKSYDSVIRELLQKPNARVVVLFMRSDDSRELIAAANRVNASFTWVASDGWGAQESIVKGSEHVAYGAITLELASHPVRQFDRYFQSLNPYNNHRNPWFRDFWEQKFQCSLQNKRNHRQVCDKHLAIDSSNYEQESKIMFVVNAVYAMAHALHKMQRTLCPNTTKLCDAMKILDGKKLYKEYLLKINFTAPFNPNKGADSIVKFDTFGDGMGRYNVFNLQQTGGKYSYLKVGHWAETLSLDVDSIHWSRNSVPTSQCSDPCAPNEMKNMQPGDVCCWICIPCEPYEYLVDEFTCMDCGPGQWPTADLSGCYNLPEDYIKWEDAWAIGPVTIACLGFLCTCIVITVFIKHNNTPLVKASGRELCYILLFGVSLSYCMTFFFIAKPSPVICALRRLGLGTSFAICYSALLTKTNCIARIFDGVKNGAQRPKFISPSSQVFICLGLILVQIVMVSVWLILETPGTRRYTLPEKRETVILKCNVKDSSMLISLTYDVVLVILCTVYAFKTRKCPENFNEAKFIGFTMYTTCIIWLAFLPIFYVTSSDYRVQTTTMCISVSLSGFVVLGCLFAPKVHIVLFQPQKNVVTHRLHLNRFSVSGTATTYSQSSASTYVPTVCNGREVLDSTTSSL
Experimental: as §1
as §2, with “Compound activity at the group II (mGlu2 and mGlu3) and group III (mGlu4, mGlu6, mGlu7, and mGlu8) was assessed using thallium flux through GIRK channels, a method that has been described in detail. Briefly,” for “Briefly,”

Human mGlu2, sequence (Q14416 19-872): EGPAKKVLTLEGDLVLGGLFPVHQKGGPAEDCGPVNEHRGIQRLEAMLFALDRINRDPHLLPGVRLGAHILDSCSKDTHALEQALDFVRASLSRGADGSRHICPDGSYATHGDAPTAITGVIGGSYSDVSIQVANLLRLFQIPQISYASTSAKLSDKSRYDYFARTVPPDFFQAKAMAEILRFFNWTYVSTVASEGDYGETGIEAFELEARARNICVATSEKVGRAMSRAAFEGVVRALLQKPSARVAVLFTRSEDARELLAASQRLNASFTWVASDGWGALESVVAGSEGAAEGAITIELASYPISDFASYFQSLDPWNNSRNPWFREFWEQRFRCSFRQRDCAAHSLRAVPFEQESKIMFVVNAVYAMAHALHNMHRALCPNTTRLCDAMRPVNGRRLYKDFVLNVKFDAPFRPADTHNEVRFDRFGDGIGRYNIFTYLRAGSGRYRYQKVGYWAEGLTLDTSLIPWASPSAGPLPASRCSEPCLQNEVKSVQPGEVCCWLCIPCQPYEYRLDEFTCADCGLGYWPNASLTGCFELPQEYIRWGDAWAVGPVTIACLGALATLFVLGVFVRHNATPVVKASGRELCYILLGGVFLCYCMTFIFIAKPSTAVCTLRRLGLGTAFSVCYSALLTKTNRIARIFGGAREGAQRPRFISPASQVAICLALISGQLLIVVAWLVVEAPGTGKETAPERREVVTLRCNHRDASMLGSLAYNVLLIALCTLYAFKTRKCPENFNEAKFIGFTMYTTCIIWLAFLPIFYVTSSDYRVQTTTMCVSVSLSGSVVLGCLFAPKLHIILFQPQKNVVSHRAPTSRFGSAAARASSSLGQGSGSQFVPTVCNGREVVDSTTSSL
Human mGlu3, sequence (Q14832 23-879): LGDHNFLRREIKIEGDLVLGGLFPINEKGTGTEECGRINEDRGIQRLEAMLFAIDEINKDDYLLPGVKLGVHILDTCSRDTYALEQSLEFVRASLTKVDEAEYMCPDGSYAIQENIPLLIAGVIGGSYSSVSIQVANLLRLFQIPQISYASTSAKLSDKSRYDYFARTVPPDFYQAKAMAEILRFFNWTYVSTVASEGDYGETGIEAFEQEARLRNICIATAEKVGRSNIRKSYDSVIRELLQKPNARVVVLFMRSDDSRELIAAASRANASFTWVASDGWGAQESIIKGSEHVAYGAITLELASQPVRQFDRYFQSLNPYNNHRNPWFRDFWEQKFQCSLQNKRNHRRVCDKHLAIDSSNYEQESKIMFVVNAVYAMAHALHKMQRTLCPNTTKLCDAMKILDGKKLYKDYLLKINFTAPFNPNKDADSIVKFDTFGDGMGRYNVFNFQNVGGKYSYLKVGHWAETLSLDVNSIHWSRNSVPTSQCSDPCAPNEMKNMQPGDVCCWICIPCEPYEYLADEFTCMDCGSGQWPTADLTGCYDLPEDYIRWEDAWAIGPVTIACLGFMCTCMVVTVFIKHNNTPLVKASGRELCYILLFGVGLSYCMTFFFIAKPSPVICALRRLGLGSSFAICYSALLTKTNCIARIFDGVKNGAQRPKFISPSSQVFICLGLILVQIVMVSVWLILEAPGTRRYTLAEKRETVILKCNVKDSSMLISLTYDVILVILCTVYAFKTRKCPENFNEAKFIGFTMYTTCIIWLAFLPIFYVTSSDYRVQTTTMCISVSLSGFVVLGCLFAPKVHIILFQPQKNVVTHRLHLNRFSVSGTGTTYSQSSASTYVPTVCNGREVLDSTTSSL

| EC50 (Human mGlu2) [nM] | EC50 (Human mGlu3) [nM] | EC50 (Rat mGlu2) [nM] | EC50 (Rat mGlu3) [nM] | SMILES |
| --- | --- | --- | --- | --- |
| > 10000 | > 30000 |  |  | COc1ccc(C(=O)O)c(-c2cnc(COc3ccc(C#CCO)c(C)c3C)cn2)c1 [compound 150] |
| 913 | 3950 |  |  | Cc1c(OCc2cnc(-c3ccc(C(=O)O)c(F)c3)cn2)ccc(C(=O)CC(C)(C)C)c1O [compound 137, 4-(5-((4-(3,3-Dimethylbutanoyl)-3-hydroxy-2-methylphenoxy)methyl)pyrazin-2-yl)-2-fluorobenzoic acid] |
| 445 | 104 |  |  | Cc1c(OCc2cnc(-c3ccc(Cl)c(C(=O)O)c3)cn2)ccc(C(=O)CC(C)(C)C)c1O [compound 138, 2-Chloro-5-(5-((4-(3,3-Dimethylbutanoyl)-3-hydroxy-2-methylphenoxy)methyl)pyrazin-2-yl)benzoic acid] |
| 53 | 104 |  |  | COc1c(C(=O)O)cccc1-c1noc(COc2ccc(C(=O)CC(C)(C)C)c(O)c2C)n1 [compound 158, 3-(5-((4-(3,3-Dimethylbutanoyl)-3-hydroxy-2-methylphenoxy)methyl)-1,2,4-oxadiazol-3-yl)-2-methoxybenzoic acid] |
| 69 | 133 |  |  | COc1c(C(=O)O)cccc1-c1ccc(COc2ccc(C(=O)CC(C)(C)C)c(O)c2C)cn1 [compound 153, 3-(5-((4-(3,3-Dimethylbutanoyl)-3-hydroxy-2-methylphenoxy)methyl)pyridin-2-yl)-2-methoxybenzoic acid] |
| 112 | 89 |  |  | Cc1cc(C(=O)O)ccc1-c1cnc(COc2ccc(C(=O)CC(C)(C)C)c(O)c2C)cn1 [compound 144, 4-(5-{[4-(3,3-Dimethylbutanoyl)-3-hydroxy-2-methylphenoxy]methyl}pyrazin-2-yl)-3-methylbenzoic acid] |
| 48 | 148 |  |  | Cc1c(C(=O)O)cccc1-c1noc(COc2ccc(C(=O)CC(C)(C)C)c(O)c2C)n1 [compound 157, 3-(5-((4-(3,3-Dimethylbutanoyl)-3-hydroxy-2-methylphenoxy)methyl)-1,2,4-oxadiazol-3-yl)-2-methylbenzoic acid] |

The remaining lines, values behind:

| SMILES | EC50 (Human mGlu2) [nM] | EC50 (Human mGlu3) [nM] | EC50 (Rat mGlu2) [nM] | EC50 (Rat mGlu3) [nM] |
| --- | --- | --- | --- | --- |
| COc1c(C(=O)O)cccc1-c1cnc(COc2ccc(C(=O)C3CC3)c(O)c2C)cn1 [compound 78, 3-(5-((4-(Cyclopropanecarbonyl)-3-hydroxy-2-methylphenoxy)methyl)pyrazin-2-yl)-2-methoxybenzoic acid] | 41 | 1930 |  |  |
| COc1ccccc1C(=O)c1ccc(OCc2cnc(-c3cccc(C(=O)O)c3)cn2)c(C)c1O [compound 73, 3-(5-((3-Hydroxy-4-(2-methoxybenzoyl)-2-methylphenoxy)methyl)pyrazin-2-yl)benzoic acid] | 2030 | 685 |  |  |
| COc1ccc(C(=O)O)cc1OCCCCOc1ccc(C(=O)c2ccc(C(C)(C)C)cc2)c(O)c1C [compound 76, 3-[4-(4-{[4-(tert-Butyl)phenyl]carbonyl}-3-hydroxy-2-methylphenoxy)butoxy]-4-methoxybenzoic acid] | > 10000 | > 10000 |  |  |
| COc1cc(C(=O)O)cc(-c2cnc(COc3ccc(C(=O)CC(C)(C)C)c(O)c3C)cn2)c1 [compound 129, 3-(5-((4-(3,3-Dimethylbutanoyl)-3-hydroxy-2-methylphenoxy)methyl)pyrazin-2-yl)-5-methoxybenzoic acid] | 729 | 364 |  |  |
| COc1ccc(C(=O)O)cc1OCCCCCCCOc1ccc(C(=O)CC(C)(C)C)c(O)c1C [Example 20, 3-{7-[4-(3,3-Dimethylbutanoyl)-3-hydroxy-2-methylphenoxy]heptyloxy}-4-methoxybenzoic acid] | 334 | 1060 |  |  |
| COc1cccc(C(=O)c2ccc(OCc3cnc(-c4cccc(C(=O)O)c4)cn3)c(C)c2O)c1 [compound 75, 3-(5-((3-Hydroxy-4-(3-methoxybenzoyl)-2-methylphenoxy)methyl)pyrazin-2-yl)benzoic acid] | 2710 | 1340 |  |  |
| COc1cccc(C(=O)c2ccc(OCc3cccc(-c4cccc(C(=O)O)c4)c3)c(C)c2O)c1 [compound 62, 3′-((3-Hydroxy-4-(3-methoxybenzoyl)-2-methylphenoxy)methyl)-[1,1′-biphenyl]-3-carboxylic acid] | 1170 | 1600 |  |  |
| CCCC(=O)c1ccc(OCc2cnc(-c3ccc(C(=O)O)c(Cl)c3)cn2)c(C)c1O [compound 107, 4-{5-[(4-Butanoyl-3-hydroxy-2-methylphenoxy)methyl]pyrazin-2-yl}-2-chlorobenzoic acid] |  |  | 254 | 2140 |
| Cc1c(SCCCCOc2cccc(C(=O)O)c2)ccc(C(=O)CC(C)(C)C)c1O [compound 83] |  |  | 549 | 3290 |
| Cc1c(OCc2cnc(-c3cccc(C(=O)O)c3)cn2)ccc(C(=O)C2CC2)c1O [compound 70, 3-(5-((4-(Cyclopropanecarbonyl)-3-hydroxy-2-methylphenoxy)methyl)pyrazin-2-yl)benzoic acid] |  |  | 824 | 2550 |
| CCCC(=O)c1ccc(OCC#CCOc2ccc(C(=O)O)cc2OC)c(C)c1O [Example 34, 4-[4-(4-Butanoyl-3-hydroxy-2-methylphenoxy)but-2-ynyloxy]-3-methoxybenzoic acid] |  |  | 31 | 1900 |
| Cc1c(OCc2cnc(-c3cccc(C(=O)O)c3)cn2)ccc(C(=O)C(C)(C)C)c1O [compound 110, 3-(5-((3-Hydroxy-2-methyl-4-pivaloylphenoxy)methyl)pyrazin-2-yl)benzoic acid] |  |  | 1040 | 327 |
| CCCC(=O)c1ccc(OCC[S+]([O-])CCOc2ccc(C(=O)O)c(Cl)c2)c(C)c1O (stereo not shown) [Example 40, 4-(2-{[2-(4-Butanoyl-3-hydroxy-2-methylphenoxy)ethyl]sulfinyl}ethoxy)-2-chlorobenzoic acid] |  |  | 591 | > 30000 |
